Test results published in ChEMBL document CHEMBL1201862, “PubChem BioAssay data set” (2004).
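How tested: cells in 96-well plates exposed to compound for 48 hours at five concentrations. Here, GI50 denotes the concentration required for 50% inhibition of growth.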 Active and inactive are the calls of the source. Rule as the data show it: active = GI50 up to about 1.1 µM and inactive = higher.

Columns and labels:
Assay in all cases: growth of human tumour cells (NCI), 48 h
EKVX = system: EKVX
SF-295 = system: SF-295
UACC-62 = system: UACC-62
K562 = system: K562
BT-549 = system: BT-549
HOP-92 = system: HOP-92
M14 = system: M14
SR = system: SR
UO-31 = system: UO-31
LOX IMVI = system: LOX IMVI
SNB-75 = system: SNB-75
Malme-3M = system: Malme-3M
NCI-H460 = system: NCI-H460
RPMI-8226 = system: RPMI-8226
OVCAR-8 = system: OVCAR-8
UACC-257 = system: UACC-257
A498 = system: A498
A549 = system: A549
OVCAR-4 = system: OVCAR-4
TK-10 = system: TK-10

Measured: GI50

CN(C)c1ccc(/C=C(\NC(=O)c2ccccc2)C(=O)NCC(=O)O)cc1
inactive: EKVX > 100 µM | SF-295 > 100 µM | UACC-62 > 100 µM | K562 > 100 µM | BT-549 > 100 µM | HOP-92 > 100 µM | M14 > 100 µM | SR > 100 µM | UO-31 > 100 µM | LOX IMVI > 100 µM | SNB-75 > 100 µM | Malme-3M > 100 µM | NCI-H460 > 100 µM | RPMI-8226 > 100 µM | OVCAR-8 > 100 µM | UACC-257 > 100 µM | A498 > 100 µM | A549 > 100 µM

COc1ccccc1NC(=O)CC(=O)N1N=C(C)C(/N=N/c2ccc(C(=O)O)cc2)C1=O (stereo not given)
inactive: EKVX 28.6 µM | SF-295 > 100 µM | UACC-62 > 100 µM | K562 > 100 µM | BT-549 > 100 µM | HOP-92 28.2 µM | M14 > 100 µM | OVCAR-4 > 100 µM | SR > 100 µM | UO-31 > 100 µM | LOX IMVI > 100 µM | SNB-75 2.24 µM | Malme-3M > 100 µM | RPMI-8226 > 100 µM | TK-10 > 100 µM | OVCAR-8 > 100 µM | UACC-257 > 100 µM | A498 > 100 µM | A549 > 100 µM

Cc1c(C)c2c(c(N)c1C#N)C(=O)N(O)C2=O
inactive: EKVX > 100 µM | SF-295 > 100 µM | UACC-62 > 100 µM | K562 > 100 µM | BT-549 > 100 µM | HOP-92 > 100 µM | M14 > 100 µM | OVCAR-4 > 100 µM | SR > 100 µM | UO-31 > 100 µM | SNB-75 45.2 µM | Malme-3M > 100 µM | NCI-H460 > 100 µM | RPMI-8226 > 100 µM | TK-10 > 100 µM | OVCAR-8 > 100 µM | UACC-257 > 100 µM | A498 > 100 µM | A549 > 100 µM

Cc1ccc2nc(-c3ccc(-n4c(C)nc(=O)c(-c5ccc(F)cc5)c4C)cc3)sc2c1
inactive: EKVX 13.5 µM | SF-295 17.5 µM | K562 10.8 µM | BT-549 14.5 µM | HOP-92 17.6 µM | M14 12.7 µM | OVCAR-4 17.6 µM | SR 6.12 µM | UO-31 15 µM | LOX IMVI 22.7 µM | SNB-75 13.7 µM | Malme-3M 14.5 µM | RPMI-8226 4.06 µM | TK-10 16.1 µM | OVCAR-8 17.5 µM | UACC-257 16.1 µM | A498 18.2 µM | A549 14.7 µM

CCOC(=O)/C(C(=O)c1ccc([N+](=O)[O-])cc1)=C(\NS(=O)(=O)c1cc(C)c(Cl)cc1[S-])[n+]1ccc(N(C)C)cc1
inactive: SF-295 16.7 µM | UACC-62 49.3 µM | K562 32.1 µM | BT-549 35.5 µM | HOP-92 3.27 µM | M14 31.1 µM | OVCAR-4 32.9 µM | SR 31.6 µM | UO-31 35.3 µM | Malme-3M 14.4 µM | NCI-H460 34.9 µM | RPMI-8226 28.1 µM | TK-10 18.7 µM | OVCAR-8 38.9 µM | UACC-257 6.47 µM | A498 21.4 µM | A549 38.8 µM

N#C/C(=C\NC(=S)c1ccncc1)c1nc2ccccc2s1
inactive: EKVX 67.1 µM | SF-295 > 100 µM | UACC-62 > 100 µM | K562 > 100 µM | BT-549 > 100 µM | HOP-92 > 100 µM | M14 > 100 µM | OVCAR-4 > 100 µM | SR 74.6 µM | UO-31 > 100 µM | LOX IMVI > 100 µM | SNB-75 68.1 µM | NCI-H460 68.7 µM | RPMI-8226 > 100 µM | TK-10 65.2 µM | OVCAR-8 > 100 µM | UACC-257 30.9 µM | A498 > 100 µM | A549 > 100 µM
